Assays:
[1] = biological target: D(2) dopamine receptor (Homo sapiens, UniProt P14416); experiment: Binding affinity to D2 dopamine receptor by radioligand binding assay
[2] = biological target: D(1B) dopamine receptor (Homo sapiens, UniProt P21918); experiment: Binding affinity to D5 dopamine receptor by radioligand binding assay
[3] = biological target: Adenosine receptor A1 (Homo sapiens, UniProt P30542); experiment: Binding affinity to adenosine A1 receptor by radioligand binding assay
[4] = biological target: Adenosine A2 receptor (Homo sapiens, UniProt P29275+P29274); experiment: Binding affinity to adenosine A2 receptor by radioligand binding assay; type: protein assay
[5] = biological target: Adenosine receptor A3 (Homo sapiens, UniProt P0DMS8); experiment: Binding affinity to adenosine A3 receptor by radioligand binding assay
[6] = biological target: Adenosine receptor A2a (Homo sapiens, UniProt P29274); experiment: Binding affinity to adenosine […] receptor by radioligand binding assay
[7] = biological target: Voltage-gated inwardly rectifying potassium channel KCNH2 (Homo sapiens, UniProt Q12809); experiment: Binding affinity to hERG by radioligand binding assay
[8] = biological target: Serotonin 3 (5-HT3) receptor; experiment: Binding affinity to 5HT3 receptor by radioligand binding assay; type: protein-complex assay, Homo sapiens
[9] = Binding affinity to mGluR by radioligand binding assay; set-up: species or system Homo sapiens
[10] = Binding affinity to NK receptor by radioligand binding assay
[11] = Binding affinity to calcium channel by radioligand binding assay
[12] = test system: Baboon; experiment: Penetration through blood-brain barrier in baboon; type: ADME, organism-based, Papio; conditions: in vivo
[13] = Binding affinity to sodium channel by radioligand binding assay
[14] = biological target: Sodium-dependent dopamine transporter (Homo sapiens, UniProt Q01959); experiment: Binding affinity to DAT by radioligand binding assay
[15] = biological target: 5-hydroxytryptamine receptor 6 (Homo sapiens, UniProt P50406); experiment: Binding affinity to 5HT6 receptor by radioligand binding assay
[16] = biological target: 5-hydroxytryptamine receptor 5A (Homo sapiens, UniProt P47898); experiment: Binding affinity to 5HT5A receptor by radioligand binding assay
[17] = biological target: Delta-type opioid receptor (Homo sapiens, UniProt P41143); experiment: Binding affinity to DOR by radioligand binding assay
[18] = biological target: Sodium-dependent noradrenaline transporter (Homo sapiens, UniProt P23975); experiment: Binding affinity to NET by radioligand binding assay
[19] = biological target: Glutamate receptor ionotropic AMPA (Homo sapiens, UniProt P42261+P42262+P42263+P48058); experiment: Binding affinity to AMPA receptor by radioligand binding assay; type: protein-complex assay
[20] = Binding affinity to VMAT by radioligand binding assay
[21] = biological target: GABA-A receptor; anion channel; experiment: Binding affinity to GABA receptor by radioligand binding assay; type: protein-complex assay
[22] = biological target: Translocator protein (Homo sapiens, UniProt P30536); experiment: Binding affinity to BZP receptor by radioligand binding assay
[23] = biological target: Kappa-type opioid receptor (Homo sapiens, UniProt P41145); experiment: Binding affinity to KOR by radioligand binding assay
[24] = biological target: ATP-dependent translocase ABCB1 (Homo sapiens, UniProt P08183); experiment: Binding affinity to MDR1 by radioligand binding assay
[25] = biological target: Histamine H2 receptor (Homo sapiens, UniProt P25021); experiment: Binding affinity to histamine H2 receptor by radioligand binding assay
[26] = Binding affinity to EP receptor by radioligand binding assay
[27] = biological target: 5-hydroxytryptamine receptor 1E (Homo sapiens, UniProt P28566); experiment: Binding affinity to 5HT1E receptor by radioligand binding assay
[28] = biological target: D(3) dopamine receptor (Homo sapiens, UniProt P35462); experiment: Binding affinity to D3 receptor by radioligand binding assay
[29] = biological target: D(4) dopamine receptor (Homo sapiens, UniProt P21917); experiment: Binding affinity to D4 receptor by radioligand binding assay
[30] = biological target: Histamine H3 receptor (Homo sapiens, UniProt Q9Y5N1); experiment: Binding affinity to histamine H3 receptor by radioligand binding assay
[31] = biological target: Histamine H4 receptor (Homo sapiens, UniProt Q9H3N8); experiment: Binding affinity to histamine H4 receptor by radioligand binding assay
[32] = biological target: Glutamate receptor ionotropic kainate; experiment: Binding affinity to KAR by radioligand binding assay; type: protein-complex assay
[33] = biological target: Muscarinic acetylcholine receptor; experiment: Binding affinity to M receptor by radioligand binding assay; type: protein assay
[34] = biological target: Glutamate [NMDA] receptor; experiment: Binding affinity to NMDA receptor by radioligand binding assay; type: protein-complex assay
[35] = Binding affinity to V receptor by radioligand binding assay
[36] = biological target: Sigma non-opioid intracellular receptor 1 (Homo sapiens, UniProt Q99720); experiment: Binding affinity to sigma1 opioid receptor by radioligand binding assay
[37] = biological target: 5-hydroxytryptamine receptor 1B (Homo sapiens, UniProt P28222); experiment: Binding affinity to 5HT1B receptor by radioligand binding assay
[38] = biological target: Alpha-2A adrenergic receptor (Homo sapiens, UniProt P08913); experiment: Binding affinity to alpha 2A adrenergic receptor by radioligand binding assay
[39] = biological target: 5-hydroxytryptamine receptor 7 (Homo sapiens, UniProt P34969); experiment: Binding affinity to 5HT7 receptor by radioligand binding assay
[40] = biological target: Alpha-1B adrenergic receptor (Homo sapiens, UniProt P35368); experiment: Binding affinity to alpha 1B adrenergic receptor by radioligand binding assay
[41] = biological target: Alpha-1A adrenergic receptor (Homo sapiens, UniProt P35348); experiment: Binding affinity to alpha 1A adrenergic receptor by radioligand binding assay
[42] = biological target: Histamine H1 receptor (Homo sapiens, UniProt P35367); experiment: Binding affinity to histamine H1 receptor by radioligand binding assay
[43] = biological target: 5-hydroxytryptamine receptor 2A (Homo sapiens, UniProt P28223); experiment: Binding affinity to 5HT2A receptor by radioligand binding assay
[44] = biological target: Sodium-dependent serotonin transporter (Homo sapiens, UniProt P31645); experiment: Binding affinity to SERT by radioligand binding assay
[45] = biological target: T1, 5-hydroxytryptamine receptor 1A (Homo sapiens, UniProt P08908); experiment: Agonist activity assessed by stimulation of [35S]GTP-gamma-S binding to human 5HT1A receptor expressed in CHO cells; type: functional, cell-based
[46] = biological target: T1, 5-hydroxytryptamine receptor 1A; experiment: Binding affinity to 5HT1A receptor by radioligand binding assay
[47] = biological target: 5-hydroxytryptamine receptor 2B (Homo sapiens, UniProt P41595); experiment: Binding affinity to 5HT2B receptor by radioligand binding assay
[48] = biological target: Alpha-2C adrenergic receptor (Homo sapiens, UniProt P18825); experiment: Binding affinity to alpha 2C adrenergic receptor by radioligand binding assay
[49] = biological target: 5-hydroxytryptamine receptor 1A (Homo sapiens) (UniProt P08908); experiment: Agonist activity assessed by stimulation of [35S]GTP-gamma-S binding to human 5HT1A receptor expressed in CHO cells relative to 5-HT; type: functional, cell-based
Sequence of 5-hydroxytryptamine receptor 1A (Homo sapiens) (P08908 whole entry): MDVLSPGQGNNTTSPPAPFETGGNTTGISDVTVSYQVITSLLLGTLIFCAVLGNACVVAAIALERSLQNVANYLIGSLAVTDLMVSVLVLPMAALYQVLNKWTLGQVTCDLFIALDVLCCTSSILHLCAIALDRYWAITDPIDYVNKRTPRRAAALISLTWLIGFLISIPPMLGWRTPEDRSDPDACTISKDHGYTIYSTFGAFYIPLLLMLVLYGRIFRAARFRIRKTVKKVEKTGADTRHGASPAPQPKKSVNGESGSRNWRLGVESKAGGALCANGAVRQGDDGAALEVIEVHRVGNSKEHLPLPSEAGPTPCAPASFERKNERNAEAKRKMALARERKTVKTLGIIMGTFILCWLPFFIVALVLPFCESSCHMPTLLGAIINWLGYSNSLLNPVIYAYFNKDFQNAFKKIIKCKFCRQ

T1 sequence (P08908 whole entry): as above
Sequence of ATP-dependent translocase ABCB1 (P08183 whole entry): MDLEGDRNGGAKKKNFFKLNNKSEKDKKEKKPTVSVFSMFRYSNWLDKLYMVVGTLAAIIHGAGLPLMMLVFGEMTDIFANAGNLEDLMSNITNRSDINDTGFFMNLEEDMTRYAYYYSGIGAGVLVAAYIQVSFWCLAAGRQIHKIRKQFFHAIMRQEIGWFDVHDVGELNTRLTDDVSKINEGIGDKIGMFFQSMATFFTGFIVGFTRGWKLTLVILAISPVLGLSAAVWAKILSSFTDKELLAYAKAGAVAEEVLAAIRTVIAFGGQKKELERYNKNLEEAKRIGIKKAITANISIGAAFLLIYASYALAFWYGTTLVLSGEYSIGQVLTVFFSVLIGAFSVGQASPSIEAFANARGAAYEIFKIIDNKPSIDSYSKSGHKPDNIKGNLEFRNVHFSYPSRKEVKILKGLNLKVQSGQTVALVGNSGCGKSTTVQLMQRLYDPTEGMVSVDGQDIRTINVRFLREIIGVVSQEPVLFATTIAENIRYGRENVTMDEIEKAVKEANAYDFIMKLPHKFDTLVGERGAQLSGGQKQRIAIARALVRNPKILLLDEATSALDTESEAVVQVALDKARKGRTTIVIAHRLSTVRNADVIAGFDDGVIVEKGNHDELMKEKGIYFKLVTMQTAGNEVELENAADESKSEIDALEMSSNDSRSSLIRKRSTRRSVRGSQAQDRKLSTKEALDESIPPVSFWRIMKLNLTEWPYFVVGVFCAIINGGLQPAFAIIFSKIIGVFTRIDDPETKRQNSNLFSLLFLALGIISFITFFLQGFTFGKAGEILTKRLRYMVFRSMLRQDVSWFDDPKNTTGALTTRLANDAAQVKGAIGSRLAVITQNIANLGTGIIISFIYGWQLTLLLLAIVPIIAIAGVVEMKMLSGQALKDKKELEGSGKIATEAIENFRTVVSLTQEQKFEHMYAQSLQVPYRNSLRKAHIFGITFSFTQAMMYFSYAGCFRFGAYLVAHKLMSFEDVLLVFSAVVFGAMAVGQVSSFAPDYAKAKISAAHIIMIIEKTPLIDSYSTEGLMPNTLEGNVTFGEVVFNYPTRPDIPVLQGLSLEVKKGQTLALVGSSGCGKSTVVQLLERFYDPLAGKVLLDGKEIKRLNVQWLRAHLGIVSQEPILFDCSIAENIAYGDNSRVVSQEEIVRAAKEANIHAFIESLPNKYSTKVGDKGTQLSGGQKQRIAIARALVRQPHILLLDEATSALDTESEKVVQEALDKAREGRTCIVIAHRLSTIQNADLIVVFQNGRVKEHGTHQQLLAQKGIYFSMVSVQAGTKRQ
Sequence of 5-hydroxytryptamine receptor 1E (P28566 whole entry): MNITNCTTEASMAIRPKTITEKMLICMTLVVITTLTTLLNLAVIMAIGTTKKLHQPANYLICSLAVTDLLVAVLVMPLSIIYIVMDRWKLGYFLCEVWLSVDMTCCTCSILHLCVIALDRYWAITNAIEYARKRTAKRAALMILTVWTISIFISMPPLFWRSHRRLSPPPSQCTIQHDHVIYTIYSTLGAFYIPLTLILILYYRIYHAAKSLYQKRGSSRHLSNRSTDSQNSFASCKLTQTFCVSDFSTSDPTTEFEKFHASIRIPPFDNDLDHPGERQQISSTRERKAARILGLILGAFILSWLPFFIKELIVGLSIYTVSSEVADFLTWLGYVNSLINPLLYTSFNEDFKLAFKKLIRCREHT
Sequence of Kappa-type opioid receptor (P41145 whole entry): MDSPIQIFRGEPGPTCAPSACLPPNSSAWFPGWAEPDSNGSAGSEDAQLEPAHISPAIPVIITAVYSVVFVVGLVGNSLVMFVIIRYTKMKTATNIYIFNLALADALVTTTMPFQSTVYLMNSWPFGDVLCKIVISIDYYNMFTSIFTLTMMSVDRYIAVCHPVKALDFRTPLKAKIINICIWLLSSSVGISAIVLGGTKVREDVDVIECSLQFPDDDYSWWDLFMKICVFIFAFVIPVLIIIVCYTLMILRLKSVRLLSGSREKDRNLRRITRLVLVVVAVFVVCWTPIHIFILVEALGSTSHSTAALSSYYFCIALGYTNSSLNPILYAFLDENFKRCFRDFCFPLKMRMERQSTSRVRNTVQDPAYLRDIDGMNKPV
Sequence of Adenosine receptor A2a (P29274 whole entry): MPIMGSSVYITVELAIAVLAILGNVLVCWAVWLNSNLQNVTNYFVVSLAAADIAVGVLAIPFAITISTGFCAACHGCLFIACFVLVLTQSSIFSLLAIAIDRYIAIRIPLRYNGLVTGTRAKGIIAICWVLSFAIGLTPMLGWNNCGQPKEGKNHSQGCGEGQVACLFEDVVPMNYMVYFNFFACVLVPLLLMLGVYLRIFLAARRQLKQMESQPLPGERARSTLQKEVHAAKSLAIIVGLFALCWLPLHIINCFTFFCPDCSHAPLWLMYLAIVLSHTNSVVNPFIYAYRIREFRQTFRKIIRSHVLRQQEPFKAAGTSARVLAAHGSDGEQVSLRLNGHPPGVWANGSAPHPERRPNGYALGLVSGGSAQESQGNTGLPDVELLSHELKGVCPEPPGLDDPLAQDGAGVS
Sequence of 5-hydroxytryptamine receptor 2B (P41595 whole entry): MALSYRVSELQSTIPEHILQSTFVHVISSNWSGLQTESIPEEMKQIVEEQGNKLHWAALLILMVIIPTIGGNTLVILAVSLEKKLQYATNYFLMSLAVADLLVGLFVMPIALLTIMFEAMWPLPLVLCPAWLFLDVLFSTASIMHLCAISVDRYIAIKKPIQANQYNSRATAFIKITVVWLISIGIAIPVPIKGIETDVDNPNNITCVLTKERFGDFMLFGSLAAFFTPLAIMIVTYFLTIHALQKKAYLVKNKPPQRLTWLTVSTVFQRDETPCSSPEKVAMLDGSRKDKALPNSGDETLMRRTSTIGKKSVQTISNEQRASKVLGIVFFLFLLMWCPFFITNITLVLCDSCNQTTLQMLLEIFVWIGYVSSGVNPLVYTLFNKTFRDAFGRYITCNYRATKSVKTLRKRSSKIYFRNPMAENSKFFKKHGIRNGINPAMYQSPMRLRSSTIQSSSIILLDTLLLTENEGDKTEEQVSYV
Sequence of 5-hydroxytryptamine receptor 1B (P28222 whole entry): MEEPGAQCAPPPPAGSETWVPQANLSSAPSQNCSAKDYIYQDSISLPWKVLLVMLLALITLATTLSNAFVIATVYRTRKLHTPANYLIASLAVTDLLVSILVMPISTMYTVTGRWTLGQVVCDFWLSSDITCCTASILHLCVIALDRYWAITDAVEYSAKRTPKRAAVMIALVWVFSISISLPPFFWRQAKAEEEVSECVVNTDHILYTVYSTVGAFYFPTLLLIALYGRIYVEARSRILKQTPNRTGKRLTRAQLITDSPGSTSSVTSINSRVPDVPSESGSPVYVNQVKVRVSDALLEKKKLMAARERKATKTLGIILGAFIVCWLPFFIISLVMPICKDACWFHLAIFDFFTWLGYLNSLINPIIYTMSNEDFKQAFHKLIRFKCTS
Sequence of 5-hydroxytryptamine receptor 5A (P47898 whole entry): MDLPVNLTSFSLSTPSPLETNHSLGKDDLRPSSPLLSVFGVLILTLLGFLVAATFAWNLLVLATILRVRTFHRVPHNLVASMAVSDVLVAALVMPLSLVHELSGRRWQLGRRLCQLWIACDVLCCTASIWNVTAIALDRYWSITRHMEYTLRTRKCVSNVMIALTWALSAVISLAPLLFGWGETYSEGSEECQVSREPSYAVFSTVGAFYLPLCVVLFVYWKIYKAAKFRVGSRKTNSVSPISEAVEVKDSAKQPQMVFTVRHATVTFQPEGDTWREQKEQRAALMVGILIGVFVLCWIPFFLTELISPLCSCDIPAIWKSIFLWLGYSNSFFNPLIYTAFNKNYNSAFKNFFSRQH
Sequence of Alpha-2C adrenergic receptor (P18825 whole entry): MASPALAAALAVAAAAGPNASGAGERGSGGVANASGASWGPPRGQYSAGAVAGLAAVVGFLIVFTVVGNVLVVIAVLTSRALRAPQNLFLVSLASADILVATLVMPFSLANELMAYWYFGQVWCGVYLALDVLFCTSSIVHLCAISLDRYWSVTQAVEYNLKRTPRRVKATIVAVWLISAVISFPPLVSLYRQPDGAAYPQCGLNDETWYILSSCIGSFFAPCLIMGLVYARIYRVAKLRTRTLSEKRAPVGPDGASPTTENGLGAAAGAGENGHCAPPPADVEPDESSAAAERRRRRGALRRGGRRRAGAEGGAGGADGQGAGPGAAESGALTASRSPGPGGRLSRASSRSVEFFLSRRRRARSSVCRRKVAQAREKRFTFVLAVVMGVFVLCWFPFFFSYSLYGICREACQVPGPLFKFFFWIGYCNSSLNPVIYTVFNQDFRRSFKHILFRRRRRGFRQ
Sequence of Adenosine receptor A1 (P30542 whole entry): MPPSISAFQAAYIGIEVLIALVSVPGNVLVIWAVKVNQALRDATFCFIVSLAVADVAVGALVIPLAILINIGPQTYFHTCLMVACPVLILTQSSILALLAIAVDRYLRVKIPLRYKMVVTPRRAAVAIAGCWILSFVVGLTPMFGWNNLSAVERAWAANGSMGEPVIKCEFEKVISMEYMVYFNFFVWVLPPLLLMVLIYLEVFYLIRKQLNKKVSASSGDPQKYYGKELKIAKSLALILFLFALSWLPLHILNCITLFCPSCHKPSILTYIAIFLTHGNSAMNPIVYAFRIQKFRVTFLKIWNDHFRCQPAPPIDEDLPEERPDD

Question: Which Ki [1] does the source give for `COc1cccc(N2CCN(CCCCn3ncc(=O)n(C)c3=O)CC2)c1` here?
Answer: 2.58 µM

Question: What about the Ki [2] of the same compound?
Answer: > 10 µM

Question: And the Ki [3]?
Answer: > 10 µM

Question: And the Ki [4]?
Answer: > 10 µM

Question: What about the Ki [5] of the same compound?
Answer: > 10 µM

Question: And the Ki [6]?
Answer: > 10 µM

Question: And the Ki [7]?
Answer: > 10 µM

Question: And the Ki [8]?
Answer: > 10 µM

Question: And the Ki [9]?
Answer: > 10 µM

Question: And the Ki [10]?
Answer: > 10 µM

Question: And the Ki [11]?
Answer: > 10 µM

Question: And the Activity [12]?
Answer: Active

Question: What about the Ki [13] of the same compound?
Answer: > 10 µM

Question: What about the Ki [14] of the same compound?
Answer: > 10 µM

Question: And the Ki [15]?
Answer: > 10 µM

Question: What about the Ki [16] of the same compound?
Answer: > 10 µM

Question: And the Ki [17]?
Answer: > 10 µM

Question: And the Ki [18]?
Answer: > 10 µM

Question: What about the Ki [19] of the same compound?
Answer: > 10 µM

Question: What about the Ki [20] of the same compound?
Answer: > 10 µM

Question: What about the Ki [21] of the same compound?
Answer: > 10 µM

Question: And the Ki [22]?
Answer: > 10 µM

Question: What about the Ki [23] of the same compound?
Answer: > 10 µM

Question: What about the Ki [24] of the same compound?
Answer: > 10 µM

Question: What about the Ki [25] of the same compound?
Answer: 2.13 µM

Question: What about the Ki [26] of the same compound?
Answer: > 10 µM

Question: What about the Ki [27] of the same compound?
Answer: > 10 µM

Question: And the Ki [28]?
Answer: > 10 µM

Question: And the Ki [29]?
Answer: > 10 µM

Question: What about the Ki [30] of the same compound?
Answer: > 10 µM

Question: What about the Ki [31] of the same compound?
Answer: > 10 µM

Question: And the Ki [32]?
Answer: > 10 µM

Question: What about the Ki [33] of the same compound?
Answer: > 10 µM

Question: And the Ki [34]?
Answer: > 10 µM

Question: And the Ki [35]?
Answer: > 10 µM

Question: And the Ki [36]?
Answer: 0.18 µM

Question: And the Ki [37]?
Answer: 0.228 µM

Question: And the Ki [38]?
Answer: 0.25 µM

Question: And the Ki [39]?
Answer: 0.328 µM

Question: What about the Ki [40] of the same compound?
Answer: 0.378 µM

Question: What about the Ki [41] of the same compound?
Answer: 0.413 µM

Question: What about the Ki [42] of the same compound?
Answer: 0.839 µM

Question: What about the Ki [43] of the same compound?
Answer: 2.1 µM

Question: And the Ki [44]?
Answer: > 10 µM

Question: What about the EC50 [45] of the same compound?
Answer: 0.0003 µM

Question: What about the Ki [46] of the same compound?
Answer: 0.0011 µM

Question: What about the Ki [47] of the same compound?
Answer: 0.0337 µM

Question: What about the Ki [48] of the same compound?
Answer: 0.109 µM

Question: And the Emax [49]?
Answer: 95%

Source: ChEMBL document CHEMBL1146943, “Synthesis, in vitro and in vivo evaluation of [O-methyl-11C] 2-{4-[4-(3-methoxyphenyl)piperazin-1-yl]-butyl}-4-methyl-2H-[1,2,4]-triazine-3,5-dione: a novel agonist 5-HT1A receptor PET ligand” (Bioorg Med Chem Lett, 2006)
